Structures are written as SMILES.

By AUC is commonly meant the area under the concentration-time curve, a measure of exposure.

The series in a line: Change of concentration in plasma over time after oral administration to rats (KNI-272 with Indinavir or Nelfinavir). The settings on record: for AUC: rat, plasma, po. How it is done:
In this example, the change in concentration in blood of KNI-272 over time when the KNI-272 was orally administered in combination with Indinavir, i.e. the change in the concentration of a non-binding type of drug in plasma over time, was measured to evaluate the effect of drug interactions on fluctuations of dynamics in vivo. A commercially available Indinavir for oral administration, CRIXIVAN™ (manufactured by Merck), was used after dissolving Indinavir sulfate in a prescribed concentration. As KNI-272, a suspension prepared from a fine powder of KNI-272 was used. Rats were used as test animals. […] In addition, each compound was individually administered to control groups to evaluate the dynamics in vivo. The animals were fasted for 16 hours before administration. The measurement of the change in the non-binding drug concentration in plasma over time was carried out according to a conventional method using blood samples collected from the test animals.
The method of evaluation was applied to the above-mentioned system of Indinavir and KNI-272 was followed. […] In this example, a dosage of 50 mg/kg was selected for both Nelfinavir and KNI-272.

Where [1] appears, read: Indinavir 40 mg/kg + KNI-272 40 mg/kg p.o. at the same time.

On to `CSC[C@H](NC(=O)COc1cccc2cnccc12)C(=O)N[C@@H](Cc1ccccc1)[C@H](O)C(=O)N1CSC[C@H]1C(=O)NC(C)(C)C` [KNI-272, (R)-N-1,1-dimethylethyl-3-[(2S,3S)-2-hydroxy-3-[(R)-2-(5-isoquinolyloxyacetyl)amino-3-methylthiopropanoyl]amino-4-phenylbutanoyl]-1,3-thiazolidine-4-carboxyamide], for which, under setting [1], the “increase in maximum concentration value in blood (Cmax) of KNI-272” value is given as “about twice”. For the same molecule, the “increase in the value of AUC of KNI-272” value under setting [1] is listed as “about a six-times increase”. Moreover, where the note is “KNI-272 10 mg/kg one hour after Indinavir 90 mg/kg”, the “increase in AUC value of KNI-272” value was “about 10 times”. In addition, the “decrease in the maximum concentration value in blood Cmax of KNI-272 (to fraction)” value (KNI-272 50 mg/kg with Nelfinavir 50 mg/kg vs alone) is on record as “about ¼”. Where the note is “KNI-272 administered one hour after Indinavir”, the “increase in the maximum concentration value in blood (Cmax) of KNI-272” value came out at 3 times. The AUC is 660 ng·h/mL (10 mg/kg, AUC value of KNI-272, KNI-272 10 mg/kg p.o., no Indinavir); 4900 ng·h/mL (40 mg/kg, AUC value of KNI-272, KNI-272 40 mg/kg p.o. individually); 29200 ng·h/mL (40 mg/kg, AUC value of KNI-272, KNI-272 40 mg/kg p.o. together with Indinavir 40 mg/kg); 9170 ng·h/mL (50 mg/kg, AUC value for KNI-272, KNI-272 50 mg/kg p.o. only); 10300 ng·h/mL (50 mg/kg, AUC value for KNI-272, KNI-272 50 mg/kg p.o. simultaneously with Nelfinavir 50 mg/kg); 6900 ng·h/mL (AUC value of KNI-272, KNI-272 10 mg/kg p.o. one hour after Indinavir 90 mg/kg).

Source of the values: patent US20020068749A1, “AIDS REMEDY” (priority 1996, published 2002).
